Structures are written as SMILES. Some results are limits rather than exact numbers.

Experiment in all cases: MIC broth microdilution
What all share (assay type): cell-based

The test system of test [1] is Staphylococcus epidermidis. Particulars: ATCC12228; Staphylococcus epidermidis ATCC 12228, 24 h, 37 °C. Here is the method:
(§1) The antimicrobial activity of cholinium-based ILs with an ester group in the alkyl chain was evaluated against a range of representative bacteria and fungi.
(§2) Antibacterial assays were performed against the following microorganisms: Bacillus subtilis ATCC 6633, Staphylococcus epidermidis ATCC 12228, Staphylococcus aureus ATCC 29213, Micrococcus luteus ATCC10240, Listeria monocytogenes ATCC 15313, methicillin-resistant Staphylococcus aureus ATCC 43300, Escherichia coli ATCC 8739, Acinetobacter baumannii ATCC 19606, Klebsiella aerogenes ATCC 13048, Pseudomonas aeruginosa 9027, and Salmonella enterica ATCC14208. The antibacterial activity was assessed in vitro using the minimum inhibitory concentration (MIC) method. MIC is defined as the lowest concentration of an antimicrobial agent that prevents visible bacterial growth after 24 h of incubation at 37 °C. The ionic liquids were dissolved in Mueller–Hinton broth (MBH) at concentrations ranging from 1 to 256 μg/mL. The broth was added (200 μL) to appropriate wells of a 96-well polystyrene microtitre plate. Then, 10 μL of a nutrient broth starter culture of each bacterial strain was added to achieve final inocula of approximately […] colony forming units (CFU)/mL. A growth control using nutrient broth medium without the ionic liquid was included. The plates were incubated 37 °C for 24 h. Bacterial growth was initially observed visually, with increased turbidity indicating cell growth. […] A color change of resazurine from blue to pink indicated bacterial metabolic activity. All the experiments were performed in triplicate to ensure reproducibility.

Another test has as its system Pseudomonas aeruginosa. Particulars: Pseudomonas aeruginosa 9027, 24 h, 37 °C. Here is the method:
as §1, §2

A further test concerns Salmonella enterica. As to conditions: Salmonella enterica ATCC14208, 24 h, 37 °C. How it is done:
as §1, §2

Another test relates to Klebsiella aerogenes. Particulars: ATCC13048; Klebsiella aerogenes ATCC 13048, 24 h, 37 °C. How it is done: as §1, §2
The next test has as its system Listeria monocytogenes. As to conditions: ATCC15313; Listeria monocytogenes ATCC 15313, 24 h, 37 °C. Here is the method: as §1, §2
The next test relates to Acinetobacter baumannii. Particulars: ATCC19606; Acinetobacter baumannii ATCC 19606, 24 h, 37 °C. How it is done: as §1, §2
The subject of another test is Escherichia coli. As to conditions: ATCC8739; Escherichia coli ATCC 8739, 24 h, 37 °C. How it is done: as §1, §2
In a further test the test system is Staphylococcus aureus. As to conditions: ATCC29213; Staphylococcus aureus ATCC 29213, 24 h, 37 °C. Here is the method: as §1, §2

With `CCCCCCCCCCCCCCOC(=O)C[N+](C)(C)CCO.[Br-]` [C14ECholBr, N-(2-hydroxyethyl)-N,N-dimethyl-2-oxo-2-(tetradecyloxy)ethan-1-aminium bromide], the MIC in test [1] was 64 µg/mL; in the test on Pseudomonas aeruginosa, > 256 µg/mL; in the test on Salmonella enterica, > 256 µg/mL; in the test with Klebsiella aerogenes, > 256 µg/mL; against Listeria monocytogenes it was > 256 µg/mL; in the test with Acinetobacter baumannii, > 256 µg/mL. Besides, the MIC in the test with Escherichia coli is > 256 µg/mL; with Staphylococcus aureus, 128 µg/mL.
As to `CCCCCCCCCCOC(=O)C[N+](C)(C)CCO` [C10ECholBr], the MIC (in test [1]; against Pseudomonas aeruginosa; with Salmonella enterica; with Klebsiella aerogenes; with Listeria monocytogenes; with Acinetobacter baumannii) was > 256 µg/mL in each case. Moreover, the MIC against Escherichia coli and against Staphylococcus aureus was > 256 µg/mL each time.
Regarding `CCCCCCCCCCCCOC(=O)C[N+](C)(C)CCO` [C12ECholBr], the MIC is 64 µg/mL in test [1]; > 256 µg/mL with Pseudomonas aeruginosa; > 256 µg/mL with Salmonella enterica; > 256 µg/mL in the test with Klebsiella aerogenes; > 256 µg/mL in the test on Listeria monocytogenes; > 256 µg/mL in the test on Acinetobacter baumannii. For the same compound, the MIC against Escherichia coli is > 256 µg/mL; in the test with Staphylococcus aureus, 64 µg/mL.

For orientation: MIC means the lowest concentration found to suppress growth. Low readings indicate a more susceptible organism, high ones a less susceptible organism.

These data come from paper PMC11946258, “Self-Assembly, Antimicrobial Properties and Biodegradability of Ester-Functionalized Choline-Based Surface-Active Ionic Liquids” (Molecules, 2025).
